Measured values from patent US20230103644A1, “TREATMENT OF EPILEPSY” (Katholieke Universiteit Leuven, priority 2020, published 2023).
“Also recorded” adds a separate entry of the source.

How the values were obtained:
[1] = molecular target: T1, human Phgdh (Homo sapiens, UniProt O43175); assay: Phgdh activity assay (colorimetric kit, NADH at 450 nm); format: biochemical; conditions: for Phgdh activation (in words): 25 μM compound
T1 construct: purchased BPS bioscience 71079
T1 sequence (O43175 1-533): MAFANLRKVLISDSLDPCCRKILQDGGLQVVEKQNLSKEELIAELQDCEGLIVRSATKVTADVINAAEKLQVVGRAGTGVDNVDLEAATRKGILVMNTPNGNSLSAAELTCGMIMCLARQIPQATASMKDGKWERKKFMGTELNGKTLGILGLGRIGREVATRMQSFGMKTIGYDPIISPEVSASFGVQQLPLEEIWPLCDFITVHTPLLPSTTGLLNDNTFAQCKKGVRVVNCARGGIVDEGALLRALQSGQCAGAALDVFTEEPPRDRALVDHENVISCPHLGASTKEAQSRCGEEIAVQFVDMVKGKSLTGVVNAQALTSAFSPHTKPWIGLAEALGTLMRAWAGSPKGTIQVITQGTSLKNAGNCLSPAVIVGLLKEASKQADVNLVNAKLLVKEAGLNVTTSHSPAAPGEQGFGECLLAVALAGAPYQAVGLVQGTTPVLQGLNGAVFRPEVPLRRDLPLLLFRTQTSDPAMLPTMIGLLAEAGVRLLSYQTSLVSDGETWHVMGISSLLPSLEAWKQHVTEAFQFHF
Protocol: Phgdh enzyme activity upon drug treatment was tested using human Phgdh (BPS bioscience, 71079) and a specific colorimetric Phgdh activity kit (Biovision, K569). The Phgdh inhibitor Disulfiram [Spillier et al. (2019) Sci Rep. 9, 4737], served as […].
Briefly, Human Phgdh enzyme was diluted in assay buffer at a concentration of 0.38 mg/mL. Next, 5 μl of this Phgdh enzyme solution and 5 μL of the compounds in 5% DMSO and assay buffer was added (to wells of flat bottom 96-well plate). Subsequently, 40 μl Phgdh assay buffer (Biovision) and 50 μl Phgdh reaction mix (prepared as described in the protocol of the Phgdh assay kit K569, Biovision) was added. The final amount of enzyme per reaction was 0.35 μM. Afterwards, absorbance at 450 nm, indicative for the amount of NADH generated, was measured over time. NADH is one of the end products of the reaction. In between measurements, the plate was incubated at 37° C., protected from light.

[2] = system: EKP induced seizures in zebrafish larvae; assay: Zebrafish drug resistant epilepsy model: ethyl ketopentenoate (EKP), locomotor tracking; format: in vivo; conditions: for activity after EKP exposure (locomotor activity relative to EKP only): 1 μM compound, 300 μM EKP, 30 min recording; for effect on EKP induced seizures (locomotor activity, actinteg units): 7 dpf larvae, compound at MTC (CQ 3 μM, CH 3.125 μM, PBT-1033 6 μM) 2 h before 300 μM EKP
Protocol: Larvae (7 dpf) in 100 μl VHC were arrayed individually in a 96-well plate (tissue culture plate, at bottom, Falcon, USA) and kept in the light at 28° C. Two-hours before tracking compound (clioquinol (CQ), chloroxine (CH), PBT-1033) and/or inhibitor (disulfiram (DS), CBR) was added at their MTC to the larvae and afterwards the 96-well plates were placed in darkness at 28° C. for 2 hours. Just prior to tracking 100 µl of VHC or EKP stock solution was added to each well to obtain a EKP concentration of 300 μM. The plates were placed in an automated video tracking device (ZebraBox™ apparatus; Viewpoint, Lyon, France) and the locomotor behavior of the larvae was monitored for 40 min in the dark at 28° C. Locomotor activity was quantified using ZebraLab™ software (Viewpoint, Lyon, France) and expressed in “actinteg” units per 5-min interval. For each larvae, 30 min of tracking data after the effect of EKP was initiated was used. The actinteg value is defined as the sum of all image pixel changes detected during the time window.
Locomotor activity was quantified using ZebraLab™ software (Viewpoint, Lyon, France) and expressed in mean “actinteg” units per 5-min+/−SEM during a 30 min recording interval relative to EKP only. Statistical analysis: one-way ANOVA with Dunnett's multiple comparison test. A statistical difference is indicated by: ****p<0.0001. For each condition n=10 larvae were used and the experiment was performed two times (n total=20 per condition).

[3] = system: Scn1Lab mutant larvae; assay: Zebrafish model of Dravet syndrome, locomotor behavioural assay; format: in vivo; conditions: 6 dpf larvae, MTC concentration in 0.1% DMSO, 2 h incubation, normalized to VHC-treated mutants
Protocol: 6 dpf Scn1Lab mutant larvae (selected by their darker appearance, lack of a swim bladder and slight curvature of the body on 6 dpf) and WT larvae were arrayed in a 96-well plate (one larva per well) and treated with 100 μl VHC (0.1% DMSO) or compound (MTC concentration in 0.1% DMSO). After incubation at 28° C. on a 14/10 h light/dark cycle for 2 h, the plates were immediately placed in an enclosed tracking device (ZebraBox Viewpoint, France) and chamber habituation for 30 min. The locomotor activity of the larvae were evaluated during 10 min under dark conditions and quantified by the lardist parameter (total distance in large movements) and plotted in cm (ZebraLab™ software, Viewpoint, Lyon, France). Data was collected from 3-4 larvae per treatment condition. The locomotor data were analysed by normalizing the locomotor activity of treated larvae against VHC-treated Scn1Lab mutant larvae.

[4] = system: cAMP-transporting ABC pumps; conditions: possible targets ABCC4 and ABCC11; cited from earlier work
[5] = cited from earlier work
[6] = system: 6-Hz (44 mA) psychomotor seizures in NMRI mice; assay: Mouse 6-Hz (44 mA) psychomotor seizure model; format: in vivo; conditions: i.p. injection 60 min before corneal stimulation
Protocol: Male NMRI mice (weight 25-30 g) were acquired from Charles River Laboratories (France) and housed in polyacrylic cages under a 14/10-hour light/dark cycle at 21° C. The animals were fed a pellet diet and water ad libitum, and were allowed to acclimate for 1 week before experimental procedures were conducted. Prior to the experiment, mice were isolated in polyacrylic cages with a pellet diet and water ad libitum for habituation overnight in the experimental room, to minimize stress. The antiseizure activity of compounds was investigated in the mouse 6-Hz (44 mA) psychomotor seizure model as described before [Copmans et al (2018) ACS Chem Neurosci. 9, 1652-1662.]. In brief, 500 μl (injection volume was adjusted to the individual weight) of VHC (0.5% sodiumcarboxymethylcellulose (NaCMC)/Tween80 in 0.9% NaCl) or treatment (valproate or clioquinol dissolved in VHC) was i.p. injected in NMRI mice and after 60 min psychomotor seizures were induced by corneal electrical stimulation (6 Hz, 0.2 ms rectangular pulse width, 3 s duration, 44 mA) using an ECT Unit 5780 (Ugo Basile, Comerio, Italy). Seizure durations were measured during the experiment by experienced researchers, familiar with the different seizure behaviours. In addition, seizure durations were determined by blinded video analysis to confirm or correct the initial observations. Data are expressed as mean±SD.

[7] = cited from earlier work; remark: listed apart in the source
[8] = cited from earlier work; remark: listed apart in the source

O=C(O)c1cc(O)c2ccc(Cl)cc2n1 [7-chloro-kynurenic acid]
Phgdh activation (in words) [1]: could not activate Phgdh; also recorded: no induced activation of PHGDH
activity after EKP exposure (locomotor activity relative to EKP only) [2]: not Active

O=C(Oc1cccc2cccnc12)c1ccccc1 [benzoxyquine]
Phgdh activation (in words) [1]: could not activate Phgdh

Oc1c(Cl)cc(Cl)c2cccnc12 [chloroxine]
reduction of epileptiform locomotor activity of Scn1Lab mutant group [3]: > 60%
effect on EKP induced seizures (locomotor activity, actinteg units) [2]: significantly reduced EKP induced seizures

Oc1c(I)cc(Cl)c2cccnc12 [clioquinol]
effect on cAMP-transporting ABC pumps [4]: inhibits
dose that did not produce toxicity in animals ([5]; animals, over 30 days, in all but one study): 100 mg/(kg day)
dose with toxicity observed in a week ([5]; dogs, in a week): 400 mg/(kg day)
dose with neurological toxicity in dogs ([5]; dogs, treated for over a month): exceeding 200 mg/(kg day)
effect on the oxido-reduction reaction toward NADH generation ([1]; compound itself, data not shown): does not affect
seizure duration [6]: trend towards reduced seizure duration
activity after EKP exposure (locomotor activity relative to EKP only) [2]: superior activity
effect on EKP induced seizures (locomotor activity, actinteg units) [2]: significantly reduced EKP induced seizures
dose with no apparent adverse effects ([7]; Alzheimer clinical trial, for weeks (10 mg/kg/day)): 750 mg/day
dose with dose-limiting neurotoxicity and abdominal pain ([7]; humans (42.5 mg/kg/day)): 3200 mg/day
dose received by patients without toxicity ([7]; humans, per day (~50 mg/(kg day))): 3.5 g
dose/concentration ratio in humans ([8]; doses of 250 or 500 mg): 0.64-1.4
concentrations of free clioquinol in humans relative to hamsters (mean) ([8]; in vivo): 33 times

Oc1ccc(Cl)c2cccnc12 [cloxyquin, 5-Chloro-8-quinolinol]
Phgdh activation (in words) [1]: activity comparable to clioquinol
